Key:
S. aureus SH1000 = assay: MIC / growth inhibition assay (end-point OD600), single agent; type: cell-based; conditions: Staphylococcus aureus, SH1000, 18 h, end-point OD600 after 18 h, read-out: EC50 S. aureus (SH1000) Compound only
Source text: (§1) Minimum inhibitory concentration (MIC) assays were used to evaluate the antimicrobial activity of compounds against Gram-negative (E. coli) and Gram-positive (S. aureus) bacteria. […] Gram-positive bacteria are more susceptible to small-molecule penetration, and compounds were therefore assessed for growth inhibition against the S. aureus SH1000 strain.
(§2) 2.1. Biological and biochemical methods
(§3) Bacterial strains and culture conditions
(§4) Strains utilized in the present study are detailed in Table S1. All strains used were cultivated on Mueller Hinton Agar (MHA) and grown to stationary-phase in Mueller Hinton Broth (MHB) at 37 °C for 16 h, with shaking at 180 r.p.m.
(§5) Minimum inhibitory concentration (MIC) assays
(§6) MIC assays were performed in 96 well plates and MICs were determined in accordance with the broth microdilution protocol.4 Strains grown to stationary-phase in MHB were adjusted to 5 x 10^5 colony-forming units (CFU)/mL in fresh MHB (100 µL/well) supplemented with DMSO to ensure a constant concentration of 0.5% (v/v) DMSO across all experiments. Where […]
(§7) or H2O2 (200 μM). Test compounds were prepared as two-fold serial dilutions. Cells were […]
(§8) as the lowest concentration with no visible bacterial growth, and the optical density at 600 nm (OD600) was recorded. OD600 measurements were background corrected against no-inocula control and normalized to DMSO control for dose-response analysis. The EC50 value mean and SEM were calculated from individual EC50 values from three biological replicates. […]

JE2 = assay: Synergy experiments with CFX (growth rate method, Chou-Talalay, CompuSyn); type: cell-based, Staphylococcus aureus
Method: A more precise method to determine EC50 values for individual compounds and combinations was used to increase accuracy for CI calculations. […]
Synergy experiments were performed as described for MIC assays. Two-fold serial dilutions […]
carried out at 37 °C, with shaking at 220 r.p.m. OD600 was recorded every 30 min over a 17 h period. Measurements were background corrected against the no-inocula control before a growth curve of OD600 against time was constructed. The gradient of the exponential phase was obtained by linear regression. Gradients were normalized against the smallest and largest value within the respective data set prior to analysis with the CompuSyn software (http://www.combosyn.com/) to calculate combination index (CI) and dose-reduction index (DRI) values for each drug combination. […]

MRSA (USA300 JE2) = assay: Growth inhibition in the presence of H2O2; type: cell-based, Staphylococcus aureus
Method: The analogue panel was further tested for potentiation of alternative DNA-damaging agents Mitomycin-C (MMC) and hydrogen peroxide (Table S2), which function via alkylation and oxidization DNA bases, respectively.
as §2, §3, §4, §5, §6, §7, §8

E. coli K-12 BW25113 = assay: MIC / growth inhibition assay (end-point OD600), single agent; type: cell-based, Escherichia coli; conditions: Escherichia coli, BW25113, end-point OD600 after 18 h, read-out: EC50 E. coli (K12 BW25113) Compound only
Source text: as §1, §2, §3, §4, §5, §6, §7, §8

[1] = system: methicillin-resistant S. aureus (MRSA, USA300 JE2); assay: Ciprofloxacin (CFX) potentiation in MRSA growth inhibition assay; type: cell-based, Staphylococcus aureus
Method: as §2, §3, §4, §5, §6, §7, §8

For `O=C(O)c1cn(C2CC2)c2cc(N3CCN(C(=S)Nc4ccc(C(F)(F)F)cc4)CC3)c(F)cc2c1=O` [Compound 10], the EC50 (S. aureus SH1000) was 210 ± 30 nM, the “Dose-reduction index (DRI)” value (JE2; JE2, combination with CFX, CompuSyn) was 2.8 and the “Combination index (CI) with CFX” value (JE2; JE2, constant-ratio combination with CFX, CompuSyn) was 0.70. The EC50 (JE2; Staphylococcus aureus, JE2, rate of exponential growth phase over 17 h at 37 °C) was 2800 ± 200 nM, the “Potentiation of hydrogen peroxide” value (MRSA (USA300 JE2); JE2) was “did not potentiate” and the EC50 (MRSA (USA300 JE2); read-out: EC50 Compound + H2O2 (200 µM), MRSA USA300 JE2, H2O2 200 µM) was 4100 ± 600 nM. The EC50 (E. coli K-12 BW25113) was 500 ± 50 nM, the “fold increase in potency against JE2 in the presence of CFX compared to single agent” value ([1]; CFX 9.4 µM) was roughly 650 fold and the “fold increase in potency compared to 1 for potentiation against JE2 by CFX” value ([1]; JE2 + CFX) was roughly 160 fold. For the same molecule, the “fold increase in potency of para- over meta-substituted analogue, potentiation by CFX” value ([1]; JE2 + CFX, 4 vs 1, 10 vs 7, 14 vs 13) was roughly 25 fold and the EC50 ([1]; read-out: EC50 S. aureus (USA300 JE2) Compound + CFX (9.4 μM), in presence of half-MIC CFX (9.4 μM)) was 5.9 ± 0.6 nM.
